The text below walks through data of patent US11427544B2, “Histone deacetylase 6 inhibitors and use thereof” (TAIPEI MEDICAL UNIVERSITY, priority 2016, dated 2022).

Where a name gives a salt, the structure may show the parent alone.

The test system of one series is HL60 leukemia cell line. Description: Antiproliferative activity, HL60. The series is classed as cell-based. The following applies: Homo sapiens, HL-60. Here is the method:
(§1) A study was conducted to evaluate the inhibitory activity of compounds of Formula (I) in inhibiting HDAC6, antiproliferative activity of test compounds in suppressing cancer cell growth, and selectivity of inhibiting HDAC6 over other HDAC isoforms.
(§2) The study was performed according to the protocol reported in Hsieh et al., Cell Death and Disease, 2014, April; 5:e1166.
(§3) Shown in Table 2 below are antiproliferative activities (measured by their half maximal concentration for inhibiting cell growth, i.e., GI50) of the test compounds against various cancer cell lines.

The subject of series [1] is HCT116 colorectal cancer cell line. Description: Antiproliferative activity, HCT116. The format is cell-based. To be noted: Homo sapiens, HCT-116. Here is the method: as §1, §2, §3
Series [2] concerns scopolamine-induced memory deficit. Description: Elevated plus maze test, scopolamine-treated rats. The format is in vivo. To be noted: gavage twice daily for seven days; scopolamine 1.5 mg/kg i.p. The procedure: An in vivo study was conducted to evaluate the efficacy of compounds of Formula (I) in improving memory deficits associated with Alzheimer's disease. Compound 12, Compound 28, suberanilohydroxamic acid (50 mg/kg) or vehicle was given to rats by gavage twice daily for seven days prior to behavioral experiments. On the day conducting a behavior assessment, rats in all groups except the control group were administered scopolamine (1.5 mg/kg) by intraperitoneal injection for 30 minutes before the assessment, then a water maze test or an elevated plus maze test was performed. […] The significant reduction in transfer latency time indicated improvement in memory.

A further series concerns the target T1, HDAC6 (Homo sapiens, UniProt Q9UBN7).
T1 construct: purchased BPS Bioscience Corp
T1 sequence (Q9UBN7 1-1215): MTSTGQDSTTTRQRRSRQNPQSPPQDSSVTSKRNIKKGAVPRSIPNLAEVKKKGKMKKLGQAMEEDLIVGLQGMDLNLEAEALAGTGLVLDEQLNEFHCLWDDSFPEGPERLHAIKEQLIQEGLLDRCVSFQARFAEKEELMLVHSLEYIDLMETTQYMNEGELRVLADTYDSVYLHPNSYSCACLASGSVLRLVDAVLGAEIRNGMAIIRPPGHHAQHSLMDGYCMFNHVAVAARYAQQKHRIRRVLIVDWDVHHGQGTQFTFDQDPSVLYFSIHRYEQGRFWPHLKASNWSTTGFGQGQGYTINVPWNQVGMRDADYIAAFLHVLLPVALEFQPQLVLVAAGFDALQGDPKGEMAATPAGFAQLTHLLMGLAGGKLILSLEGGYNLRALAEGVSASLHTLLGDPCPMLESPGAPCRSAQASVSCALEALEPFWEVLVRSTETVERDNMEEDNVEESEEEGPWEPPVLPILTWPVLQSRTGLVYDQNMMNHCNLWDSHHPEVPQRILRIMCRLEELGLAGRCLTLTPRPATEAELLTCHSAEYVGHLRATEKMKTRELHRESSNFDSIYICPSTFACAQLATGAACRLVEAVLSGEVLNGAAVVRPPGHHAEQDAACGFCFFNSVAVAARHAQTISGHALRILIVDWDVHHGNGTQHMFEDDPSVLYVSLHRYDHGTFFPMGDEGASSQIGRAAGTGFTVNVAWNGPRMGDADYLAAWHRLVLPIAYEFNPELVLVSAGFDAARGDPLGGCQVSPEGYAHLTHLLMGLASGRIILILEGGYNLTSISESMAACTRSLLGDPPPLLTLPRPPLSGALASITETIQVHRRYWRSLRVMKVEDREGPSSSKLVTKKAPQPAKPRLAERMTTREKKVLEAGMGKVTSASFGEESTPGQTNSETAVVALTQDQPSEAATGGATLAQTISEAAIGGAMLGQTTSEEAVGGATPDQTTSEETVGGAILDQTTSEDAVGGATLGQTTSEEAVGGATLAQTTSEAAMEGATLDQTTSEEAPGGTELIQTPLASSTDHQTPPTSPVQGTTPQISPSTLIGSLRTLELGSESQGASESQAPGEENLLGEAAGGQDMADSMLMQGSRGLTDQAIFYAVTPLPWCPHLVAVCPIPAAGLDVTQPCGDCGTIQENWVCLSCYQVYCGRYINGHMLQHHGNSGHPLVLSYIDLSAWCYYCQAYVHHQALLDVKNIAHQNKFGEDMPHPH
Description: Fluorogenic HDAC assay, HDAC6. The format is biochemical. The text has this:
(§4) Of note, there are eighteen human HDACs. Eleven of them, designated as HDAC1-11, are zinc-dependent. Seven of them, designated as Sirt1-7, are NAD+-dependent.
(§5) Fluorogenic HDAC assay kits were used to assess the ability of HDAC inhibitors to inhibit deacetylation of lysine residues on a substrate by recombinant proteins HDAC1, 3, 4, 5, 6, 7, 8, 9 and Sirt1 according to the manufacturer's instructions (BPS Bioscience Corp., San Diego, Calif., USA).

Series [3] concerns Aβ42 production in pCAX APP 695 plasmid-transfected Neuro 2a and SH—SYSY cells. Description: Aβ42 production in cell culture supernatants. The series is classed as cell-based. The following applies: pCAX APP 695 transfected Neuro 2a and SH—SYSY cells; 0.1-10 μM, 24 hours. Here is the method: (§6) A study was conducted to evaluate the effect of compounds of Formula (I) in amyloid precursor protein (APP) levels and Aβ42 production.
Moreover, neuro 2a or SH—SYSY cells (1×10^5) were transfected with pCAX APP 695 plasmid for 24 hours, followed by incubation with Compound 12 or Compound 28 (0.1-10 μM) for another 24 hours. Cell culture supernatants were assayed for Aβ42 production.

Series [4] has as its system HL-60 Acute promyelocytic leukemia. Description: Tumor growth inhibition, HL-60 xenograft. The series is classed as in vivo, athymic nude mice. To be noted: 50 mg/kg, qd, intraperitoneal. Here is the method:
(§7) An in vivo study was conducted to evaluate the efficacy of compounds of Formula (I) in suppressing tumor growth in multiple human cancer types.
(§8) Eight-week-old athymic nude mice were group-housed under conditions of constant photoperiod (12 h light/12 h dark at 21-23° C. and 60-85% humidity) with ad libitum access to sterilized food and water. All animal experiments followed ethical standards, and protocols were reviewed and approved by the Animal Use and Management Committee of National Taiwan University. Each mouse was inoculated subcutaneously with 1×10^6˜1×10^7 human cancer cells in a total volume of 0.1 mL serum-free medium containing 50% Matrigel (BD Biosciences). As tumors became established (˜100 mm^3), mice were randomized to various groups to be treated with pre-determined materials (n=6-8/group): (i) control group: 0.5% DMSO/0.5% Cremophor/90% D5W and (ii) treatment groups: Compounds 12 and 28 at pre-determined doses daily. Mice received treatment by intraperitoneal injection for the duration of the study. Tumors were measured weekly using calipers. Tumor size, in mm^3, was calculated according to the formula: Tumor volume=(w^2×l)/2, where w and 1 respectively represent the width and length (both in mm) of the tumor.

For series [5], the system named is scopolamine-induced memory deficit. Description: Water maze test, scopolamine-treated rats. The series is classed as in vivo. The following applies: gavage twice daily for seven days; scopolamine 1.5 mg/kg i.p. The procedure:
An in vivo study was conducted to evaluate the efficacy of compounds of Formula (I) in improving memory deficits associated with Alzheimer's disease.
Compound 12, Compound 28, suberanilohydroxamic acid (50 mg/kg) or vehicle was given to rats by gavage twice daily for seven days prior to behavioral experiments. On the day conducting a behavior assessment, rats in all groups except the control group were administered scopolamine (1.5 mg/kg) by intraperitoneal injection for 30 minutes before the assessment, then a water maze test or an elevated plus maze test was performed.

Series [6] has as its system A549 lung cancer cell line. The experiment in a line: Antiproliferative activity, A549. To be noted: Homo sapiens. The format is cell-based, human. Here is the method:
as §1, §2, §3

Series [7] has as its system BJAB Burkitt lymphoma-derived B-cell. Description: Tumor growth inhibition, BJAB xenograft. The series is classed as in vivo, athymic nude mice. The following applies: 50 mg/kg, qd, intraperitoneal. The procedure:
as §7, §8

Series [8] concerns PC-3 prostate cancer cell line. The experiment in a line: Antiproliferative activity, PC-3. The series is classed as cell-based, human. The following applies: Homo sapiens. The procedure: as §1, §2, §3
The next series concerns the target T2, HDAC1 (Homo sapiens, UniProt Q13547).
T2 construct: purchased BPS Bioscience Corp
Description: Fluorogenic HDAC assay, HDAC1. The series is classed as biochemical. The following applies: recombinant HDAC1; read-out: Enzyme IC50 HDAC1.
Description: as §4, §5

The nature of series [9]: Safety in ICR mice, 7-day intraperitoneal dosing. The following applies: 50, 100, and 200 mg/kg intraperitoneally once a day for 7 days, monitored another 7 days. The series is classed as in vivo. Here is the method: In addition, both Compounds 12 and 28 were studied to evaluate their safety in animals.
[…]. The animals were dosed intraperitoneally once a day for 7 days and then monitored for another 7 days. The animals were weighed daily for 1 week and then twice weekly.

Series [10] concerns APP in pCAX APP 695 plasmid-transfected Neuro 2a cells. Description: Amyloid precursor protein (APP) levels, Western blot. The following applies: pCAX APP 695 transfected neuro 2a cells; 0.1-10 μM, 24 hours. The format is cell-based. The procedure: as §6
Neuro 2a cells (1×10^6) in 6-well plates were transfected with pCAX APP 695 plasmid for 24 hours, then incubated for another 24 hours with Compound 12, Compound 28, or tubasatin A (0.1-10 μM). Cells were then harvested and cell lysates were prepared for Western blot analysis of the APP proteins.

In series [11] the test system is MDA-MB-231 Breast cancer cell line. Description: Antiproliferative activity, MDA-MB-231. The series is classed as cell-based, human. To be noted: MDA-MB-231; mesylate. Here is the method: as §1, §2, §3
The subject of series [12] is T98 Glioblastoma cell line. The experiment in a line: Antiproliferative activity, T98. The format is cell-based, human. To be noted: T98; mesylate. Here is the method: as §1, §2, §3

T2 sequence (Q13547 whole entry): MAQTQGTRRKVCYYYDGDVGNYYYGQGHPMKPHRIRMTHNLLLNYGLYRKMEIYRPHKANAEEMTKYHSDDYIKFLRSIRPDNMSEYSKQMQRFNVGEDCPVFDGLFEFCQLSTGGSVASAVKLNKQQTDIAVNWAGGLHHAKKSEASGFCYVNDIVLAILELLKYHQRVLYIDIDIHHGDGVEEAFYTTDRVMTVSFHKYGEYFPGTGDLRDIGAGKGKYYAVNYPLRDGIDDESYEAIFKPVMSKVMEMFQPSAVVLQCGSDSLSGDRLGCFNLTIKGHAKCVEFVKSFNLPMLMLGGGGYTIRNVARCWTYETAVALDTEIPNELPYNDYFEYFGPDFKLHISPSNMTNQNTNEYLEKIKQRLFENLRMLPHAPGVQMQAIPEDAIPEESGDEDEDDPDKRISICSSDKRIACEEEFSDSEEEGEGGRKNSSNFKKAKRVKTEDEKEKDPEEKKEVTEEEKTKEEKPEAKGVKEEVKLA

On to `O=C(NO)c1ccc(CNc2cncc3ccccc23)cc1` [Compound 63, N-hydroxy-4-((isoquinolin-4-ylamino)methyl)benzamide], for which the results for the GI50 (in the series with HL60 leukemia cell line; in series [1]) were 1.96 ± 0.16 µM and 1200 ± 140 nM, respectively.
For the molecule `O=C(NO)c1ccc(CNc2cccc3ncccc23)cc1` [Compound 12, N-hydroxy-4-((quinolin-5-ylamino)methyl)benzamide], in series [2], the “transfer latency time (elevated plus maze)” value is on record as “significantly rescued scopolamine-mediated increase of transfer latency time”. Further, the results for the IC50 against HDAC6 and at HDAC1 were 2.73 nM and 2650 nM, respectively. Moreover, the Aβ42 production result in series [3] is recorded as “decreased Aβ42 production”. For the same molecule, the figures for the “% TGI” value in series [4] and in [7] were 72.2% and 64.5%, respectively. Moreover, the “time spent in the correct quadrant (water maze)” value in series [5] is listed as “markedly reverse this effect”. Moreover, the GI50 (usually the concentration at which growth is held to half of that of the control) in [6] is 5.53 ± 0.24 µM; in [8], 3.28 ± 0.11 µM. Moreover, the tolerability result in series [9] was “well tolerated”. For the same molecule, the APP expression result in series [10] is reported as “markedly reduced the APP expression”.
Take `O=C(NO)c1ccc(Nc2cccc3cccnc23)cc1` [Compound 59, N-hydroxy-4-(quinolin-8-ylamino)benzamide]: the GI50 with HL60 leukemia cell line is 6.64 ± 0.69 µM; in series [1] it was 3320 ± 210 nM.
In the same order, the values of `O=C(NO)c1ccc(CNc2nccc3ccccc23)cc1` [Compound 61, N-hydroxy-4-((isoquinolin-1-ylamino)methyl)benzamide] are 1.17 ± 0.23 µM and 660 ± 100 nM.
As for `O=C(NO)c1ccc(CNc2cccc3cccnc23)cc1` [Compound 28-mesylate, N-Hydroxy-4-(quinolin-8-ylaminomethyl)-benzamide mesylate], the values for the GI50 in series [11] and in series [12] were 1360 ± 250 nM and 10.8 ± 0.83 µM, respectively.
Turning to `O=C(NO)c1ccc(CNc2cccc3nccnc23)cc1` [Compound 66, N-hydroxy-4-((quinoxalin-5-ylamino)methyl)benzamide], the GI50 was found to be 5.58 ± 0.15 µM in the series on HL60 leukemia cell line and 1950 ± 210 nM in series [1].
